Results taken from PMC2982795 (Nature structural & molecular biology, 2009).
pKd, pKi: −log10 of the molar value. Read-outs that look alike come from different tables or passages of the source.

Experiments:
hMSH2/MSH3 [1] = target: T1, hMSH2/MSH3 (Homo sapiens, UniProt P20585+P43246); assay: UV cross-linking of [alpha-32P]-ADP, SDS-PAGE; format: binding; conditions: 5 mM Mg2+; pH 8.1; no DNA; either hMSH2 or hMSH3 subunit
hMSH2/MSH6 [2] = target: T2, hMSH2/MSH6 (Homo sapiens, UniProt P43246+P52701); assay: UV cross-linking of [alpha-32P]-ADP, SDS-PAGE; format: binding
hMSH2/MSH3 [3] = target: T1, hMSH2/MSH3; assay: fluorescence anisotropy competition, displacement of pre-bound BD-ADP; format: binding
hMSH2/MSH3 [4] = target: T1, hMSH2/MSH3; assay: UV cross-linking of [alpha-32P]-AMP-PNP, SDS-PAGE; format: binding; conditions: +Mg2+; no DNA
hMSH2/MSH6 [5] = target: T2, hMSH2/MSH6; assay: fluorescence anisotropy, equilibrium binding; conditions: no DNA, labelled compound

T1 sequence (P43246 2-934): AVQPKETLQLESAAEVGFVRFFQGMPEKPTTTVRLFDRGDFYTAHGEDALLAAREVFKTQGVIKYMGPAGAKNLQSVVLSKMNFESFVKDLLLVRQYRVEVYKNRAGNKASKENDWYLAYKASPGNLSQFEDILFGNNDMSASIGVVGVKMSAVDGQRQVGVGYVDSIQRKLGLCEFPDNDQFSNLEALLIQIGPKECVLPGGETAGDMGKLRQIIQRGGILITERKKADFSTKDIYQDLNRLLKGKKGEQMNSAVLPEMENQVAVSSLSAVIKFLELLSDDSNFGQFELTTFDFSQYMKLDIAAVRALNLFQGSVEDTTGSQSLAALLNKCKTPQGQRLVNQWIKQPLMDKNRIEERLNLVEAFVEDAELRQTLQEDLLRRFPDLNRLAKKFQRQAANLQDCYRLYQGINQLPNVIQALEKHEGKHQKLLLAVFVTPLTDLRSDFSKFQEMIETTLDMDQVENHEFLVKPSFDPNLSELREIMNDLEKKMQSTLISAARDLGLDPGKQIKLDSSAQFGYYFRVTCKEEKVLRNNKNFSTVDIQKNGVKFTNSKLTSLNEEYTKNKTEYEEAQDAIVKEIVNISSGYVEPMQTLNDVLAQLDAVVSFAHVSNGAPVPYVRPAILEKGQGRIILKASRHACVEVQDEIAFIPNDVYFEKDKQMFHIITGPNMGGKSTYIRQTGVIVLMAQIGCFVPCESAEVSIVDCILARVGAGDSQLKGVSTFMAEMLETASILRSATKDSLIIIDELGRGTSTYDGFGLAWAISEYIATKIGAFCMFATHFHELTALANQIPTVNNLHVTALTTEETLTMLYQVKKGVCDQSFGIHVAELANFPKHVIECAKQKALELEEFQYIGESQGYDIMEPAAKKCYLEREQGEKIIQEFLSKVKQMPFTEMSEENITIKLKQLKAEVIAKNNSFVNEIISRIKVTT
T1 sequence (P20585 whole entry): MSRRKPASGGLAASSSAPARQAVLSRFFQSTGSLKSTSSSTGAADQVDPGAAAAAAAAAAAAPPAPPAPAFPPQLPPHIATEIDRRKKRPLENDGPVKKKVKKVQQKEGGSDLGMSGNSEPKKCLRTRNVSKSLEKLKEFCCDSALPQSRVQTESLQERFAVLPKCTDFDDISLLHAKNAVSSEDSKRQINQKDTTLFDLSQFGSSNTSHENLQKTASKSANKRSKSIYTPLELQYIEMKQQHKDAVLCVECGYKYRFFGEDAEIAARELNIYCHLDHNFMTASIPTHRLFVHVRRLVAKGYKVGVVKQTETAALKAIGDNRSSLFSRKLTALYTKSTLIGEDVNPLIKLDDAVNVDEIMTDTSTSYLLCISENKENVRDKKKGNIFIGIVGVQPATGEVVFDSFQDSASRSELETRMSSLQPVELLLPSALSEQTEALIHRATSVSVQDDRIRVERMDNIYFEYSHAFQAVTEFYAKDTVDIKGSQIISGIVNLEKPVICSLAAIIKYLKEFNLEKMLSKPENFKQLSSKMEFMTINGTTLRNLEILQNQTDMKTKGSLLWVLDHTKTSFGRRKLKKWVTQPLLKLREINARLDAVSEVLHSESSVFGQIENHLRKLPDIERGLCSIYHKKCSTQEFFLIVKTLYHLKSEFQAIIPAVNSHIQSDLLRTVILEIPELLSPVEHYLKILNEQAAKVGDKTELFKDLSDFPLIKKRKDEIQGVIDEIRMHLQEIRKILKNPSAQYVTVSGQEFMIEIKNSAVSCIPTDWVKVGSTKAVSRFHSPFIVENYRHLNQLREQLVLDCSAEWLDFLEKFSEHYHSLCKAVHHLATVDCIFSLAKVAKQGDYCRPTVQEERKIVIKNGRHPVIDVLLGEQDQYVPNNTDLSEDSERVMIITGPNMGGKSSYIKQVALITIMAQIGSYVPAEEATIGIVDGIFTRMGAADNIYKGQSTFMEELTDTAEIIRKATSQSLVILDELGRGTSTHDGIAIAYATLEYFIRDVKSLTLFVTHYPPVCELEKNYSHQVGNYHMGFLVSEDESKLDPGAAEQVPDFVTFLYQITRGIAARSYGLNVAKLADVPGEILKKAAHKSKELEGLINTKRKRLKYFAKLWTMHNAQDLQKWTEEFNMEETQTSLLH
T2 sequence (P43246 2-934): as the sequence (P43246 2-934) above
T2 sequence (P52701 whole entry): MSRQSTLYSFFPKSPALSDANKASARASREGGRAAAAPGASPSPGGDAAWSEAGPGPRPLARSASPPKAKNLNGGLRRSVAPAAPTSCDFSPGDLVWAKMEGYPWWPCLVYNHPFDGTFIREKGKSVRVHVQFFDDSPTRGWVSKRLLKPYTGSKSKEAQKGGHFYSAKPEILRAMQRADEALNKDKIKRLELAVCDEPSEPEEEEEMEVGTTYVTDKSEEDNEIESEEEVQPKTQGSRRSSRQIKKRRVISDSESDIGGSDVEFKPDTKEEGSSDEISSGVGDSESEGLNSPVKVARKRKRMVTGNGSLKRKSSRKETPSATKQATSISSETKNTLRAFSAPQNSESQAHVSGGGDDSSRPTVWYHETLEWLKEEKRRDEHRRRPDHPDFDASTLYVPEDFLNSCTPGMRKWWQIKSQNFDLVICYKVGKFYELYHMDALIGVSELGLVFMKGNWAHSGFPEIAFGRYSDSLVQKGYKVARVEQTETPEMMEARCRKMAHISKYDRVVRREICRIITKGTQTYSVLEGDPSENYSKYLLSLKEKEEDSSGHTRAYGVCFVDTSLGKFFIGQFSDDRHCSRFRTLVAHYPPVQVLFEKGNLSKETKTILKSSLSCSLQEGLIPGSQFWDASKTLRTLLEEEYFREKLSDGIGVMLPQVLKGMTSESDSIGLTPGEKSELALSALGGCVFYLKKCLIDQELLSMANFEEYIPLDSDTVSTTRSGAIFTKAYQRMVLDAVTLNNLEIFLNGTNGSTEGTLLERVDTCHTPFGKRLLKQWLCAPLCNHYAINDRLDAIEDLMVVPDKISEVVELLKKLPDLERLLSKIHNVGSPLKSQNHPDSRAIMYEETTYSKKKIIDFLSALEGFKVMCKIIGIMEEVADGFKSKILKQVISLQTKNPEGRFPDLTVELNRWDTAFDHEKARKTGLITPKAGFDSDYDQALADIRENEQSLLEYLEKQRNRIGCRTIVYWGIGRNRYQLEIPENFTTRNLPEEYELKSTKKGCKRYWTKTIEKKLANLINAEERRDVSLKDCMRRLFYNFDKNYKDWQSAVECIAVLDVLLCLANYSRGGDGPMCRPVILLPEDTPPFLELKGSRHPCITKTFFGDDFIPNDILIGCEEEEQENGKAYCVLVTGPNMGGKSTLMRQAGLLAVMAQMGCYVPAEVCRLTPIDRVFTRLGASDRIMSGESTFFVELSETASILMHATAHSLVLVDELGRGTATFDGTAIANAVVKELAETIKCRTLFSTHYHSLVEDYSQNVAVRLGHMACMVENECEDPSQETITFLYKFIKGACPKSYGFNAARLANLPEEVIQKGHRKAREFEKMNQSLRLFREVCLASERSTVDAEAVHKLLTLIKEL

Compound: Nc1ncnc2c1ncn2[C@@H]1O[C@H](COP(=O)(O)OP(=O)(O)O)[C@@H](O)[C@H]1O [ADP]
- KD (hMSH2/MSH3 [1]): both subunits bound either nucleotide with high affinity, as quantified by the gel scans
- pKd (hMSH2/MSH6 [2]): 6.19
- Ki (hMSH2/MSH3 [3]; +Mg2+, no DNA, competitive, hMSH3 subunit): compare KD and Ki for ADP in Supplemental Fig. 1a,c

Compound: Nc1ncnc2c1ncn2[C@@H]1O[C@H](COP(=O)(O)OP(=O)(O)NP(=O)(O)O)[C@@H](O)[C@H]1O [AMP-PNP]
- KD (hMSH2/MSH3 [4]): Results for x-linking with AMP-PNP displayed the same trend
- pKi (hMSH2/MSH3 [3]): 4.95

Compound: BD-AMP-PNP
- pKd (hMSH2/MSH6 [5]; read-out: binding affinity, +Mg2+): 6.64

Compound: BD-ATP
- pKd (hMSH2/MSH6 [5]; no Mg2+ (non-hydrolyzing)): 6.41
